Assay results from patent US12643866B2, “Small molecule compound serving as JAK kinase inhibitor and use thereof” (TECHNODERMA MEDICINES, INC., priority 2020, dated 2026).

Experiments:
Format in all cases: biochemical
Tyk2 = Tyk2 (Homo sapiens, UniProt P29597); assay: Detection of enzyme activity inhibition of JAK kinases (ULight-JAK substrate, Eu-labeled antibody): Tyk2; conditions: ATP 10 μM, substrate 50 nM, 1 hour reaction at room temperature; read-out: Tyk2 half-maximum inhibitory concentration (IC50)
Sequence of Tyk2 (P29597 whole entry): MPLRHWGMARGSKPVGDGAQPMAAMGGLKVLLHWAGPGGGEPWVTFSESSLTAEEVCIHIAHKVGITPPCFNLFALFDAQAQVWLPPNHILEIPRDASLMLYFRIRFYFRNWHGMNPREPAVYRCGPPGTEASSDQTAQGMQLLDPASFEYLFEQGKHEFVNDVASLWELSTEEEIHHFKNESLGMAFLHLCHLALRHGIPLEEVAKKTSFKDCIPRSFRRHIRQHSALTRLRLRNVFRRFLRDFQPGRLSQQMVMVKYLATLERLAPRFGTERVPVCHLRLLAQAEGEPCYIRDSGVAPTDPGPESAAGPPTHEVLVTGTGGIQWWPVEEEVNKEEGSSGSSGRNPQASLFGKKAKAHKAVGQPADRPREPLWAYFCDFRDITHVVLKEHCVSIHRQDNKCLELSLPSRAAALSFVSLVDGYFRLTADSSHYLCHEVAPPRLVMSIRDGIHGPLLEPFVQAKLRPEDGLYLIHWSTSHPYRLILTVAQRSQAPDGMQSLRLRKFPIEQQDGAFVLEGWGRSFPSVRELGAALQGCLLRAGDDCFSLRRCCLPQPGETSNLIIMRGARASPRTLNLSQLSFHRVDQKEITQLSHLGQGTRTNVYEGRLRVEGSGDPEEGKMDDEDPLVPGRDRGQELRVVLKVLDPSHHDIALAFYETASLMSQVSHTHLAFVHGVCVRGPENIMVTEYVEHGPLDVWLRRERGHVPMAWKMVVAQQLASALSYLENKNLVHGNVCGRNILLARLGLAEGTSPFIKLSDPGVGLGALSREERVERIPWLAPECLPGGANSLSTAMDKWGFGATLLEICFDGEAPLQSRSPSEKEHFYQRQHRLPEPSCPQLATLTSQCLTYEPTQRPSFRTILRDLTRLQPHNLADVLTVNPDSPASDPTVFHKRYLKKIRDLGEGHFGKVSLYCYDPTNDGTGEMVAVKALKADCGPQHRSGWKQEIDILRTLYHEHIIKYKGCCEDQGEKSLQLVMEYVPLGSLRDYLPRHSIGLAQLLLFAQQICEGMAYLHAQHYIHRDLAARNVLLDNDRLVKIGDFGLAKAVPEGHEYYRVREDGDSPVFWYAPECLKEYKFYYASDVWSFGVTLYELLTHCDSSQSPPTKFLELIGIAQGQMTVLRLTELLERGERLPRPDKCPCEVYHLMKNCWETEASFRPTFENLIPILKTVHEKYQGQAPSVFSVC
Experimental: (§1) Test Example 1: Detection of Enzyme Activity Inhibition of Small Molecule Inhibitors of JAK Kinases
(§2) Kinase reaction buffer: The kinase reaction buffer was prepared with the following components: 50 mM HEPES, pH 7.5, 1 mM EGTA, 10 mM MgCl2, 2 mM DTT, and 0.01% Tween20. 1× test buffer: A test buffer was prepared, and the 10× test buffer was diluted with deionized water (deionized water: test buffer=9:1) to obtain the 1× test buffer. 4× kinase solution: JAK kinase was diluted with a kinase reaction buffer to a final concentration of 4× (JAK1:80 nM, JAK2/JAK3/Tyk2:4 nM). 4× substrate solution: ULight™-JAK (Tyr1023) substrate was diluted with the kinase reaction buffer to 200 nM (final concentration: 50 nM). 4×ATP solution: ATP was diluted with the kinase reaction buffer to a final concentration of 4× (JAK1:160 μM, JAK2/JAK3/Tyk2: 40 μM). 4× test compound solution: The compounds to be tested were dissolved in DMSO to prepare 10 mM stock solutions, which were diluted to have the desired concentrations through 3-fold gradient dilution, 10 concentrations were set for each compound, and final concentrations of the test compounds ranged from 10 μM to 0.5 nM. 4× enzyme reaction termination solution: EDTA was dissolved in a 1× test buffer to 40 mM (final concentration of EDTA: 10 mM). 4× test antibody solution: Eu-labeled test antibodies (anti-phosphotyrosine (PT66)) were diluted with 1× test buffer to 8 nM (final concentration of the antibodies: 2 nM).
(§3) 2.5 μL of the 4× kinase solution and 2.5 μL of each of the 4× test compound solutions having different concentrations were added into a 384-well microwell plate sequentially, with 2 duplicate wells set for each concentration, and an enzyme solution blank control group and a negative control group (DMSO group) were also provided. The 384-well plate was oscillated to mix the enzyme and the compound uniformly, centrifuged at 1000 rpm for 1 minute, and incubated at room temperature for 60 minutes. 2.5 μL of the 4× substrate solution was added into the 384-well plate, and centrifuged at 1000 rpm for 1 minute. 2.5 μL of the 4×ATP solution was added into the 384-well plate, and centrifuged at 1000 rpm for 1 minute to start the enzyme reaction. JAK1 reacted at room temperature for 2 hours, and JAK2/JAK3/Tyk2 reacted at room temperature for 1 hour. The final concentration of each component in the JAK1 reaction was: JAK1:20 nM; substrate: 50 nM; and ATP: 40 μM. The final concentrations of the test compounds ranged from 10 μM to 0.5 nM. The final concentration of each component in the JAK2/JAK3/Tyk2 reaction was: JAK2: 1 nM; substrate: 50 nM; and ATP: 10 μM. The final concentrations of the test compounds ranged from 10 μM to 0.5 nM. After the enzyme reaction ended, 5 μL of the 4× enzyme reaction termination solution was added into each well of the 384-well plate, centrifuged at 1000 rpm for 1 minute, and incubated at room temperature for 5 minutes. 5 μL of the 4× test antibody solution (final concentration of the test antibodies was 2 nM) was added into each well of the 384-well plate, centrifuged at 1000 rpm for 1 minute, and incubated at room temperature for 1 hour. After incubation of the antibodies, a signal value of each well was measured with Envision plate reader.
(§4) Assuming that an inhibition rate of the enzyme solution blank control group was 100% and an inhibition rate of the negative control group (DMSO group) was 0%, an inhibition rate corresponding to each concentration was calculated. Nonlinear regression analysis was performed on the concentration logarithm values and corresponding percentage inhibition rates of the test compounds in GraphPad Prism software to obtain the half-maximum inhibitory concentrations (IC50) of the test compounds.

JAK1 = JAK1 (Homo sapiens, UniProt P23458); assay: Detection of enzyme activity inhibition of JAK kinases (ULight-JAK substrate, Eu-labeled antibody): JAK1; conditions: JAK1 20 nM, ATP 40 μM, substrate 50 nM, 2 hours reaction at room temperature; read-out: JAK1 half-maximum inhibitory concentration (IC50)
Sequence of JAK1 (P23458 whole entry): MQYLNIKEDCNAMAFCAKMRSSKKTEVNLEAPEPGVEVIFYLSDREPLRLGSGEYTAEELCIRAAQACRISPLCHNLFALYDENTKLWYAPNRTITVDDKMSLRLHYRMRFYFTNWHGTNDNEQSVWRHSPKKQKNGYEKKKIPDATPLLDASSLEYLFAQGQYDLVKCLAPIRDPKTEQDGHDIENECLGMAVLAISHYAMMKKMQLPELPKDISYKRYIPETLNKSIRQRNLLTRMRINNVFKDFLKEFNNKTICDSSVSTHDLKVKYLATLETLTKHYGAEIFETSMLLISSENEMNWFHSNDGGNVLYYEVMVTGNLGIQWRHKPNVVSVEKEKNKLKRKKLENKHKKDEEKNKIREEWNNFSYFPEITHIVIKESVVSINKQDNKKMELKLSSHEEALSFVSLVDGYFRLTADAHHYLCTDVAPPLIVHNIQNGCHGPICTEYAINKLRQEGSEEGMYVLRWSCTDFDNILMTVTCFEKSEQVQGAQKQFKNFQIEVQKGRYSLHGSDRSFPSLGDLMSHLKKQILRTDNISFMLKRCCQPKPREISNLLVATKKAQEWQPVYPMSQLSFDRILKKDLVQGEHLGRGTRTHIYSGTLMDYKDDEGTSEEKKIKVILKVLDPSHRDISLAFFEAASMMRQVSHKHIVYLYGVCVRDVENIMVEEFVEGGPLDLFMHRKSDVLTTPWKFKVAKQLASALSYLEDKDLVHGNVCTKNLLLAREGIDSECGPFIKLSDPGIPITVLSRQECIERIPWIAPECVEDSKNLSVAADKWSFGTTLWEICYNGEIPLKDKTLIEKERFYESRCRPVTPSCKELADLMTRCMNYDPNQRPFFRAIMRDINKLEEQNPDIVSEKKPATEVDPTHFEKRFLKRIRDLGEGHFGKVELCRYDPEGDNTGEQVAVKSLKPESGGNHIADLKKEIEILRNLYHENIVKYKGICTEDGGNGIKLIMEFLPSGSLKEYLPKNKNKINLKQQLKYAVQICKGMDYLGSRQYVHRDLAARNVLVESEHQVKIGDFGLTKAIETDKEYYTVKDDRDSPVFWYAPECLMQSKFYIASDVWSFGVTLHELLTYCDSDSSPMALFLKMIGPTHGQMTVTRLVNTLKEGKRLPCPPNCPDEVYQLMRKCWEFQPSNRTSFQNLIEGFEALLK
Experimental: as §1, §2, §3, §4

JAK2 = JAK2 (Homo sapiens, UniProt O60674); assay: Detection of enzyme activity inhibition of JAK kinases (ULight-JAK substrate, Eu-labeled antibody): JAK2; conditions: JAK2 1 nM, ATP 10 μM, substrate 50 nM, 1 hour reaction at room temperature; read-out: JAK2 half-maximum inhibitory concentration (IC50)
Sequence of JAK2 (O60674 whole entry): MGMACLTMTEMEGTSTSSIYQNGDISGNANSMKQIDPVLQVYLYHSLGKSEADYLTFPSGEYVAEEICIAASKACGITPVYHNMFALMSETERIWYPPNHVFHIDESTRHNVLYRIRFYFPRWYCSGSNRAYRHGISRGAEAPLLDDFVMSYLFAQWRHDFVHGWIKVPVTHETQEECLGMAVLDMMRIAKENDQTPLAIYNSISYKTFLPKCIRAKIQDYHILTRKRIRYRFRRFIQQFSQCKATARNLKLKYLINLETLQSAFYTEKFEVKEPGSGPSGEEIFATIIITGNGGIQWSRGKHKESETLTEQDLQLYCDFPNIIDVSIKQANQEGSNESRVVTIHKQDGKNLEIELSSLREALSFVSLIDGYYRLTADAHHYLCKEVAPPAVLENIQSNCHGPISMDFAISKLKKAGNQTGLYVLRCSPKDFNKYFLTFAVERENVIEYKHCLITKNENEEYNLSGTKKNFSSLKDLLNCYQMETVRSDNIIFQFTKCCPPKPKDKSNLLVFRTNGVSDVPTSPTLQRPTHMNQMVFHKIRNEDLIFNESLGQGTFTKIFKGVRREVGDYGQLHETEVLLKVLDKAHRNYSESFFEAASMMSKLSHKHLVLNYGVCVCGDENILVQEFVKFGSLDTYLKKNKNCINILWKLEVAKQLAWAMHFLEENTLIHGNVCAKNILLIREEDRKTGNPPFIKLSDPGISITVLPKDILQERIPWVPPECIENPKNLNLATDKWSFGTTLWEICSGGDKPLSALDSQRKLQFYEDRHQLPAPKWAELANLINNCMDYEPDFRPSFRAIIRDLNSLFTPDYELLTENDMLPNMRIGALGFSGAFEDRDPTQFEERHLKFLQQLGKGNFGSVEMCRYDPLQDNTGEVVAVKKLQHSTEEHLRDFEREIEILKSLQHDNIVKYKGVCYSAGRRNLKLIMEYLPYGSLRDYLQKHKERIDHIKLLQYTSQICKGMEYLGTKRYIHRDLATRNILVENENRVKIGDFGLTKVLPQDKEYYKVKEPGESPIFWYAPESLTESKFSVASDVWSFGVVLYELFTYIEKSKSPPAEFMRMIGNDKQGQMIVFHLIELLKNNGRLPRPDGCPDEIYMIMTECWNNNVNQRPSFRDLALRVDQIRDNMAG
Experimental: as §1, §2, §3, §4

JAK3 = biological target: T1, JAK3 (Homo sapiens, UniProt P52333); assay: Detection of enzyme activity inhibition of JAK kinases (ULight-JAK substrate, Eu-labeled antibody): JAK3; conditions: ATP 10 μM, substrate 50 nM, 1 hour reaction at room temperature; read-out: JAK3 half-maximum inhibitory concentration (IC50)
T1 sequence (P52333 1-1124): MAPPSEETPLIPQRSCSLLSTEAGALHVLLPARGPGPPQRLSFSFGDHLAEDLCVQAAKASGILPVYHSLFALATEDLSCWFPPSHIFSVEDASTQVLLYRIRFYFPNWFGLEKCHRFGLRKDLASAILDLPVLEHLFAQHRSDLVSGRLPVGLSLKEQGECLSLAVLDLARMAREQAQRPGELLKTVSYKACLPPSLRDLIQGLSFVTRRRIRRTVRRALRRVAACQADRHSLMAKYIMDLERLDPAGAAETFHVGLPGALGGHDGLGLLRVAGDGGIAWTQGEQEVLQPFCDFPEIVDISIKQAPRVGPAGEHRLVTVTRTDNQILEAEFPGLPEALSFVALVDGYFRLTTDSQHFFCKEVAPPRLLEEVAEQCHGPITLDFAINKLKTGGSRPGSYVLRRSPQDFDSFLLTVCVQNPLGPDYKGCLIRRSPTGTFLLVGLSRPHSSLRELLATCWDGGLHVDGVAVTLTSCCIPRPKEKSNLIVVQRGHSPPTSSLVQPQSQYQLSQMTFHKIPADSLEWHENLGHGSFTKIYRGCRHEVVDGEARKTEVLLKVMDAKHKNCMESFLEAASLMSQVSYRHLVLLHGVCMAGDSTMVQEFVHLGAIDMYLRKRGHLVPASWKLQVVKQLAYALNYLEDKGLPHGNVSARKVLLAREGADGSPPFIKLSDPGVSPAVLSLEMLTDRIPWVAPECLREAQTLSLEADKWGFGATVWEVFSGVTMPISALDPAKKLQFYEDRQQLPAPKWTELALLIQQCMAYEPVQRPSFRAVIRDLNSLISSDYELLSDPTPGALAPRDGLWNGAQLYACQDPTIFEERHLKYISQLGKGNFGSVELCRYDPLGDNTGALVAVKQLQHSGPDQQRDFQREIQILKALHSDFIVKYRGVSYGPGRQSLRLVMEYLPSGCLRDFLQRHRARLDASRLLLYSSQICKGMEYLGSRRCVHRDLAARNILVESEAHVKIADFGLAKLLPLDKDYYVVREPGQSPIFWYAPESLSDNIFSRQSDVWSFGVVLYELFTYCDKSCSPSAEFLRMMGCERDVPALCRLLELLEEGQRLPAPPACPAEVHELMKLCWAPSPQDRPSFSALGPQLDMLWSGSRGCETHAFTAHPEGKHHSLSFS
Experimental: as §1, §2, §3, §4

| IC50 (Tyk2) | IC50 (JAK1) | IC50 (JAK2) | IC50 (JAK3) | Structure (SMILES) |
| --- | --- | --- | --- | --- |
| 17 nM | 25 nM | 33 nM | 931 nM | CNC(=O)c1ncc(Nc2nccc(-c3ccc(NC(=O)[C@@H]4CC4(F)F)nc3)n2)cc1C [TDM-180979, (S)-5((4-(6-(2,2-difluorocyclopropane-1-carboxamido)pyridin-3-yl)pyrimidin-2-yl)amino)-N,3-dimethylpyridinolineamide] |
| 8 nM | 7 nM | 7 nM | 346 nM | Cc1cc(Nc2nccc(-c3ccc(NC(=O)[C@@H]4CC4(F)F)cc3)n2)cnc1C(N)=O [TDM-180974] |
| 18 nM | 28 nM | 30 nM | > 5000 nM | Cc1cc(Nc2nccc(-c3ccc(NC(=O)[C@@H]4CC4(F)F)nc3)n2)cnc1C(N)=O [TDM-180980, (S)-5-((4-(6-(2,2-difluorocyclopropane-1-carboxamido)pyridin-3-yl)pyrimidin-2-yl)amino)-3-methyl pyridinolineamide] |
| 8 nM | 8 nM | 8 nM | 183 nM | CNC(=O)c1ncc(Nc2nccc(-c3ccc(NC(=O)[C@@H]4CC4(F)F)cc3)n2)cc1C [TDM-180981] |

Continued, compound first:

| Structure (SMILES) | IC50 (Tyk2) | IC50 (JAK1) | IC50 (JAK2) | IC50 (JAK3) |
| --- | --- | --- | --- | --- |
| CCNC(=O)c1ccc(Nc2nccc(-c3ccc(NC(=O)[C@@H]4CC4(F)F)cc3)n2)cc1 [TDM-180972] | 5 nM | 4 nM | 3 nM | 117 nM |
| CC(CO)c1ccc(Nc2nccc(-c3ccc(NC(=O)[C@@H]4CC4(F)F)nc3)n2)cn1 (stereo partly shown) [TDM-180987] | 17 nM | 25 nM | 22 nM | 310 nM |
| CCNC(=O)c1ccc(Nc2nccc(-c3ccc(NC(=O)[C@@H]4CC4(F)F)nc3)n2)cc1 [TDM-180971, (S)-4((4-(6-(2,2-difluorocyclopropane-1-formamido)pyridin-3-yl)pyrimidin-2-yl)amino)-N-ethyl benzamide] | 5 nM | 6 nM | 7 nM | 219 nM |
| CCNC(=O)c1ccc(Nc2nccc(-c3ccc(NC(=O)[C@@H]4CC4(F)F)cc3)n2)cc1C [TDM-180977, (S)-4-(4-(4-(4-(2,2-difluorocyclopropane-1-carboxamido)phenyl)pyrimidin-2-yl)amino)-N-ethyl-2-methylbenzamide] | – | – | – | 57 nM |
| CC(CO)c1ccc(Nc2nccc(-c3ccc(NC(=O)[C@@H]4CC4(F)F)cc3)n2)cn1 (stereo partly shown) [TDM-180989] | 14 nM | 11 nM | 13 nM | 177 nM |
| CCNC(=O)c1ccc(Nc2nccc(-c3ccc(NC(=O)[C@@H]4CC4(F)F)nc3)n2)cc1C [TDM-180984, (S)-4-((4-(6-(2,2-difluorocyclopropane-1-carboxamido)pyridin-3-yl)pyrimidin-2-yl)amino)-N-ethyl-2-methylbenzamide] | 5 nM | 8 nM | 9 nM | 105 nM |
